Results taken from patent publication EP0737691A1, “Bombesin analogs” (BIOMEASURE, INC., priority 1995, dated 1996).
Read-outs that look alike come from different tables or passages of the source. Square brackets hold non-standard residues; d marks the D form. Peptide text beside a SMILES is read from it. Nle = CCCC[C@H](N)C(=O)O; βAla = NCCC(=O)O

Legend:
[1] = molecular target: T1, rat NMB receptor (Rattus norvegicus, UniProt P24053); experiment: NMB Receptor Binding Assay (membranes of BALB-3T3 fibroblasts transfected with the rat NMB receptor); settings: for IC50: affinity for the NMB receptor, BALB-3T3 fibroblasts transfected with the rat NMB receptor, 30 min, 4°C
T1 construct: expressed in transfected cells; host or cells: BALB-3T3 (mouse) fibroblasts
T1 sequence (P24053 1-390): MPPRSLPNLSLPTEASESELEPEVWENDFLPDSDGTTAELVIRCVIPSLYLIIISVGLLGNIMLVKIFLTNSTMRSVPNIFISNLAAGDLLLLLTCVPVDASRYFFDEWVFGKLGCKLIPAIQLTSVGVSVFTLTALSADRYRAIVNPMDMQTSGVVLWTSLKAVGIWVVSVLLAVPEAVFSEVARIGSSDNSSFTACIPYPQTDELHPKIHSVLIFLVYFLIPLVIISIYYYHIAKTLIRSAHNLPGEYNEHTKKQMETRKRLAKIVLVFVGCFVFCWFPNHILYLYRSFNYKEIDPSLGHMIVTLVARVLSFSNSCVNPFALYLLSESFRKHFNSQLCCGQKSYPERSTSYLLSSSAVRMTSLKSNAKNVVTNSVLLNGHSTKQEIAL
Method: The procedure for transfecting the rat NMB receptor into BALB-3T3 fibroblasts is discussed in Wada, et al., Neuron, […] (1991) and Benya, et al., Mol. Pharmacol., 42:1058 (1992).
(§1) Membranes for the bombesin receptor binding assay were obtained by homogenizing BALB-373 fibroblasts, transfected with the rat NMB receptor (Polytron, setting 6, 15 sec) in ice-cold 50 mM Tris-HCl (Buffer A) and centrifuging twice at 39,000 x g (10 min), with an intermediate resuspension in fresh Buffer A. The final pellets were resuspended in 50 mM Tris-HCl, containing 0.1 mg/ml bacitracin, and 0.1% BSA (Buffer B), and held on ice for the receptor binding assay.
For assay, aliquots (0.4 ml) were incubated with 0.05 ml [^125 I-Tyr^4] bombesin (∼2200 Ci/mmol, New England Nuclear) and Buffer B, with and without 0.05 ml of unlabeled competing analogs. After a 30 min incubation (4°C), the bound [^125 I-Tyr^4] bombesin was separated from the free by rapid filtration through Whatman™ GF/B filters which had been previously soaked in 0.3% polyethyleneimine using a Brandel filtration manifold. The filters were then washed three times with 5 ml aliquots of ice-cold Buffer A. Specific binding was defined as the total [^125 I-Tyr^4] […] bound minus that bound in the presence of 1 µM unlabeled neuromedin-B.
Replacement of Gly at position A^6 in a prior art compound (i.e., litorin, leu-litorin, and [D-Phe^1, Leu^8,9] litorin) with β-Ala led unexpectedly to a great increase in their affinity for the NMB receptor. […] Modifications at position A^1, A^8, or A^9 further increases the affinity. […]

[2] = molecular target: T2, GRP receptor (Rattus norvegicus, UniProt P52500); experiment: GRP Receptor Binding Assay ([125I-Tyr4] bombesin displacement, AR42J cell membranes)
T2 construct: endogenous in cells; host or cells: Rat AR42J pancreatic acinar cells (membranes)
Method: Rat AR42J pancreatic acinar cells were cultured in Dulbecco's modified Eagle's medium without antibiotics and supplemented with 10% (vol/vol) fetal calf serum. The incubation atmosphere consisted of 10% CO2-90% humidified air at 37°C.
as §1, with “AR42J cells” for “BALB-373 fibroblasts, transfected with the rat NMB receptor”, “sec)(Brinkman, Westbury, NY)” for “sec)”

[3] = test system: R-3327/H prostate tumor; experiment: Assay on in vivo prostate tumor growth; design: species or system Copenhagen male rats; settings: 200 mg/inj. s.c., B.I.D., 24 days; castrated rats with tumors escaped from castration inhibition; versus vehicle; after day 17; Fig. 1
Excerpt: The androgen responsive R-3327/H prostate tumor line was implanted into 38 testes-intact, syngeneic Copenhagen male rats. The tumored animals were individually staged for castration when their tumors reached a size approximating 235 mgs. Tumors were then staged for bombesin analogue treatment when two sequential tumor measurements indicated an "escape from castration inhibition" condition, as evidenced by an increase in tumor growth rate. This transition of the prostate tumor tissue from androgen sensitive to androgen insensitive occurred without surgical perturbation of the tumor, thus providing a clinically realistic model for evaluating the anti-prostate tumor activity of the bombesin analogues.
The tumored animals were separated into two groups of 19 animals. Treatment was only initiated when tumors reached the "escape from castration inhibition" condition. Group 1 received 0.2 ml/inj. of 2.6% glycerol/water vehicle, (s.c., B.I.D.). Group 2 received a […]. of Analog #5 (s.c., B.I.D.). […] Tumors were measured using Vernier calipers and the volume was calculated using the following formula: (0.5)(length)(width)^2
Fig. 1 illustrates the tumor growth inhibitory effect of the treatments in Group 1 and Group 2. Relative tumor volume was calculated by the following formula: (Tumor Volume (measuring day))/(Tumor Volume (staging day))x 100 [formula] […]

[4] = affinity for the GRP receptor, [125I-Tyr4] bombesin, rat AR42J pancreatic acinar cell membranes, 30 min, 4°C, read-out: IC50

T2 sequence (P52500 whole entry): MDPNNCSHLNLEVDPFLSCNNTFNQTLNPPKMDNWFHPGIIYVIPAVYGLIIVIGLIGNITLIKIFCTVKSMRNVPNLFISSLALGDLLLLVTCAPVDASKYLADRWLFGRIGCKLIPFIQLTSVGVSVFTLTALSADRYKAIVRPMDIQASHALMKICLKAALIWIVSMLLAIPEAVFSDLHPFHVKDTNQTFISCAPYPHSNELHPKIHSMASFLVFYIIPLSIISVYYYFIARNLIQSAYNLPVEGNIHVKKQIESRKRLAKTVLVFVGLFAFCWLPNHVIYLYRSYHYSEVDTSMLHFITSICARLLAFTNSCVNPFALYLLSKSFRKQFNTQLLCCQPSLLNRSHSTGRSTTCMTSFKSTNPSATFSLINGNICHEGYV

IC50 [2, 4] [nM] | Compound | IC50 [1] [nM] | increase in the affinity for the NMB receptor ([1]; fold increase compared with litorin or [D-Phe1, Leu8,9] litorin) [time] | Rate of tumor growth [3] | binding affinity on the NMB receptor ([1]; result in words) | IC50 [2] [nM]
0.2 | CCCC[C@H](NC(=O)[C@H](Cc1ccccc1)NC(=O)[C@H](Cc1c[nH]cn1)NC(=O)CCNC(=O)[C@@H](NC(=O)[C@H](C)NC(=O)[C@H](Cc1c[nH]c2ccccc12)NC(=O)[C@H](CCC(N)=O)NC(=O)[C@H](N)Cc1ccccc1)C(C)C)C(N)=O [Analog #1, H-D-Phe-Gln-Trp-Ala-Val-β-Ala-His-Phe-Nle-NH2] (H-[dF]QWAV[βAla]HF[Nle]-NH2) | 1 |  |  |  | 
 | CCCC[C@H](NC(=O)[C@H](Cc1ccccc1)NC(=O)[C@H](Cc1cnc[nH]1)NC(=O)CCNC(=O)[C@@H](NC(=O)[C@H](C)NC(=O)[C@H](Cc1c[nH]c2ccccc12)NC(=O)[C@H](CCC(N)=O)NC(=O)[C@H](N)Cc1ccc(O)cc1)C(C)C)C(N)=O [Analog #3, H-D-Tyr-Gln-Trp-Ala-Val-β-Ala-His-Phe-Nle-NH2] (H-[dY]QWAV[βAla]HF[Nle]-NH2) | 1 |  |  |  | 
0.1 | CCCC[C@H](NC(=O)[C@H](Cc1ccccc1)NC(=O)[C@H](Cc1c[nH]cn1)NC(=O)CCNC(=O)[C@@H](NC(=O)[C@H](C)NC(=O)[C@H](Cc1c[nH]c2ccccc12)NC(=O)[C@H](CCC(N)=O)NC(=O)[C@H](N)Cc1c[nH]c2ccccc12)C(C)C)C(N)=O [Analog #4, H-D-Trp-Gln-Trp-Ala-Val-β-Ala-His-Phe-Nle-NH2] (H-[dW]QWAV[βAla]HF[Nle]-NH2) | 0.04 |  |  |  | 
2.1 | CCCC[C@H](NC(=O)[C@H](CC(C)C)NC(=O)[C@H](Cc1c[nH]cn1)NC(=O)CCNC(=O)[C@@H](NC(=O)[C@H](C)NC(=O)[C@H](Cc1c[nH]c2ccccc12)NC(=O)[C@H](CCC(N)=O)NC(=O)[C@H](N)Cc1ccccc1)C(C)C)C(N)=O [Analog #5, H-D-Phe-Gln-Trp-Ala-Val-β-Ala-His-Leu-Nle-NH2] (H-[dF]QWAV[βAla]HL[Nle]-NH2) | 8.9 |  | significantly (p < 0.05) inhibited |  | 
 | CC(C)C[C@H](NC(=O)[C@H](CC(C)C)NC(=O)[C@H](Cc1c[nH]cn1)NC(=O)CNC(=O)[C@@H](NC(=O)[C@H](C)NC(=O)[C@H](Cc1c[nH]c2ccccc12)NC(=O)[C@H](CCC(N)=O)NC(=O)[C@@H]1CCC(=O)N1)C(C)C)C(N)=O [Leu-Litorin, p-Glu-Gln-Trp-Ala-Val-Gly-His-Leu-Leu-NH2, reference compound] | > 10000 |  |  | almost no binding affinity | 23
 | CSCC[C@H](NC(=O)[C@H](Cc1ccccc1)NC(=O)[C@H](Cc1c[nH]cn1)NC(=O)CNC(=O)[C@@H](NC(=O)[C@H](C)NC(=O)[C@H](Cc1c[nH]c2ccccc12)NC(=O)[C@H](CCC(N)=O)NC(=O)[C@@H]1CCC(=O)N1)C(C)C)C(N)=O [Litorin, p-Glu-Gln-Trp-Ala-Val-Gly-His-Phe-Met-NH2, reference compound] | 1.66 |  |  |  | 2.4
 | CC(C)C[C@H](NC(=O)[C@H](CC(C)C)NC(=O)[C@H](Cc1c[nH]cn1)NC(=O)CNC(=O)[C@@H](NC(=O)[C@H](C)NC(=O)[C@H](Cc1c[nH]c2ccccc12)NC(=O)[C@H](CCC(N)=O)NC(=O)[C@H](N)Cc1ccccc1)C(C)C)C(N)=O [[D-Phe^1, Leu^8,9] litorin, H-D-Phe-Gln-Trp-Ala-Val-Gly-His-Leu-Leu-NH2, reference compound] | 480 |  |  |  | 2.8

Compound | IC50 [2, 4] [nM] | IC50 [1] [nM] | increase in the affinity for the NMB receptor ([1]; fold increase compared with litorin or [D-Phe1, Leu8,9] litorin) [time] | Rate of tumor growth [3] | binding affinity on the NMB receptor ([1]; result in words) | IC50 [2] [nM]
CC(C)C[C@H](NC(=O)[C@H](CC(C)C)NC(=O)[C@H](Cc1c[nH]cn1)NC(=O)CCNC(=O)[C@@H](NC(=O)[C@H](C)NC(=O)[C@H](Cc1c[nH]c2ccccc12)NC(=O)[C@H](CCC(N)=O)NC(=O)[C@H](N)Cc1ccccc1)C(C)C)C(N)=O [Analog #2, H-D-Phe-Gln-Trp-Ala-Val-β-Ala-His-Leu-Leu-NH2] (H-[dF]QWAV[βAla]HLL-NH2) | 1 | 41 | 11.7 |  |  | 
